Assay results as given in patent publication US20060263805A1, “Diagnosing and treating potassium channel defects” (priority 2005, published 2006).
Values belong to the compound of their own block, whether it stands above or below them.

Tests used:
[1] = test system: hypertensive wild-type mice; assay: Mineralocorticoid/salt hypertension with pharmacologic intervention, wild-type mice; type: in vivo; details: verapamil 250 μg orally daily
Method: KATP Channel Knockout and Experimental Hypertension. KATP channel-deficient mice (Kir6.2-KO) were generated by targeted disruption of the KCNJ11 gene (Miki et al., 1998, PNAS USA, 95:10402-6) which encodes the pore-forming Kir6.2 channel subunit of myocardial but not renal or vascular KATP channels, and backcrossed for 5 generations to a C57BL/6 background. […] Water or salt water intake was measured weekly. All mice were given standard rodent chow, had similar awake non-fasting blood glucose levels measured by tail sampling (Table 2; OneTouch Ultra, Lifescan), were housed individually with a 12 h day/night cycle, and were observed daily until termination of the study at day 21. Following one-week of acclimatization, blood pressure was measured by automated tail-cuff recording (Columbus Instruments) in awake restrained wild-type and Kir6.2-KO mice, 2 weeks post-nephrectomy with or without mineralocorticoid/salt loading. […]
Gross Pathology and Tissue Fibrosis. […] Lung samples were dried at 65° C. for 48 h and reweighed with pulmonary congestion assessed by comparing wet to dry lung weight ratios. Interstitial fibrosis was quantified by computer analysis (MetaMorph, Visitron Universal Imaging) of 0.5-μm thick, paraffin-embedded, Masson's trichrome-stained sections. […] All quantification was performed blinded to the sample origin. […]

[2] = test system: Kir6.1-KO mice; details: mouse, in vivo, sc
Text: Kir6.1-deficient Mice. Mice deficient in vascular KATP channels (Kir6.1-KO), while maintaining normal KATP channel current in non-vascular tissues including the myocardium, were generated by targeted disruption of the KCNJ8 gene encoding the pore-forming Kir6.1 subunit and backcrossed for more than 5 generations to a C57BL/6 background (Miki et al., 2002, Nat. Med., 8:466-72). Six to eight week-old Kir6.1-KO mice were compared to age and sex matched wild-type littermate controls or to mice lacking non-vascular, including myocardial, KATP channels generated by targeted disruption of the KCNJ11 gene that encodes the Kir6.2 channel pore (Zingman et al., 2002, PNAS USA, 99:13278-83; Suzuki et al., 2001, Circ. Res., 88:570-7). […] Comparisons between groups were performed by analysis of variance, Student's t-tests, non-parametric or log-rank tests, using JMP software (SAS). Data are presented as mean±SEM; n refers to the sample size. P<0.05 was predetermined. All chemicals were obtained from Sigma. The Mayo Foundation Institutional Animal Care and Use Committee approved all experimental protocols.
Endotoxic Shock. The shock state of severe sepsis was modeled by administration of Escherichia coli LPS serotype 0111:B4 (Natanson et al., 1989, J. Exp. Med., 169:823-32; Suffredini et al., 1989, N. Engl. J. Med., 321:280-7). […]

[3] = test system: hypertensive Kir6.2-KO mice; details: verapamil 250 μg orally daily
Text: KATP Channel Knockout and Experimental Hypertension. KATP channel-deficient mice (Kir6.2-KO) were generated by targeted disruption of the KCNJ11 gene (Miki et al., 1998, PNAS USA, 95:10402-6) which encodes the pore-forming Kir6.2 channel subunit of myocardial but not renal or vascular KATP channels, and backcrossed for 5 generations to a C57BL/6 background. With approval of the Mayo Foundation Institutional Animal Care and Use Committee, Kir6.2-KO or 8- to 12-week old, age-matched, C57BL/6 male wild-type mice had left nephrectomy through a retroperitoneal flank excision under isoflurane-anesthesia to reduce clearance and mineralocorticoid-hypertension was induced for 21 days by subcutaneous implantation of a 50 mg 21-day-release deoxycorticosterone-acetate pellet (Innovative Research of America) and drinking water supplementation with 1% NaCl/0.2% KCl. Control wild-type or Kir6.2-KO mice underwent nephrectomy alone. Water or salt water intake was measured weekly. […] Following one-week of acclimatization, blood pressure was measured by automated tail-cuff recording (Columbus Instruments) in awake restrained wild-type and Kir6.2-KO mice, 2 weeks post-nephrectomy with or without mineralocorticoid/salt loading. Systolic blood pressure was digitally derived from ten sequential recordings.
Gross Pathology and Tissue Fibrosis. At 21 days, whole heart, left ventricle including septum, kidney and lungs were removed, rinsed, blotted dry, and weighed ex vivo. Lung samples were dried at 65° C. for 48 h and reweighed with pulmonary congestion assessed by comparing wet to dry lung weight ratios. Interstitial fibrosis was quantified by computer analysis (MetaMorph, Visitron Universal Imaging) of 0.5-μm thick, paraffin-embedded, Masson's trichrome-stained sections. Kidney or left ventricular collagen content was determined by assaying hydroxyproline content after overnight hydrolysis by 12 N HCl with samples run in duplicate against standard hydroxyproline (Sigma). All quantification was performed blinded to the sample origin.
Isolated Cardiomyocytes, Immunohistochemistry and Calcium Imaging. […]

[4] = test system: Kir6.1-KO hearts; assay: Coronary flow in isolated perfused Kir6.1-KO hearts; parameters: species or system mice
Method: Coronary Flow. The aorta was cannulated in situ. […] Coronary flow was continuously measured with a T106 small animal blood flow meter (Transonic Systems Incorporated). The effect of recombinant murine TNFα was assessed at least 20 min after flow stabilization. […] Maximum vasodilation was defined as the peak increase in coronary flow observed in the wild-type in response to 10 μl of 1 mM adenosine after at least 10 min of return to baseline flow on TNFα washout.

[5] = test system: patient with atrial fibrillation; type: in vivo, human; details: for response of atrial fibrillation to antiarrhythmic medical therapy: patient
[6] = biological target: wild-type SUR2A NBD2; assay: NBD2 ATPase activity by spectrophotometry, wild-type; type: biochemical
Method: (§1) Cloning of KATP channel subunits and purification of SUR2A ATPase. cDNAs encoding SUR2A and Kir6.2 were subcloned into the expression vector pcDNA3.1. PCR-based site-directed mutagenesis was carried out using primers incorporating identified mutations (QuickChange, Stratagene). The constructs were sequenced to verify mutations and rule out additional changes in sequence. […]
(§2) Enzymology and nucleotide binding. ATPase activity of purified NBD2 was measured in the presence of Mg^2+, as Pi generation detected spectrophotometrically at 360 nm with the EnzChek Phosphate Assay Kit or by monitoring conversion of [γ-^32P]ATP using thin layer chromatography and quantified it with Phosphorlmager and ImageQuant software (Molecular Dynamics) (Zingman et al., 2002, supra). […] Binding of fluorescent ATP analog TNP-ATP to purified NBD2 constructs was determined by fluorescence spectrophotometry (QuantaMaster, PTI) at excitation and emission wavelengths of 410 nm and 540 nm, respectively. […]
(§3) The ADP dissociation constant, KADP, was determined from spectrometric measurement of steady-state NBD2 ATPase activity at [ADP]=O with variable [ATP]. […]

[7] = biological target: A1513T SUR2A NBD2; assay: NBD2 ATPase activity by spectrophotometry, A1513T mutant; type: biochemical
Method: as §1, §2, §3

[8] = biological target: Fs1524 SUR2A NBD2; assay: NBD2 ATPase activity by spectrophotometry, Fs1524 mutant; type: biochemical
Method: as §1, §2, §3

[9] = test system: Kir6.2 knockout mice; assay: Telemetric rhythm monitoring under isoproterenol challenge, KATP channel knockout mice; type: in vivo; details: isoproterenol 10 mg/kg injection; within 20 min
Text: (§4) KATP channel knockout mice were backcrossed for 5 generations to a C57BL/6 background. With approval of the Mayo Foundation Institutional Animal Care and Use Committee, the heart rate and electrocardiogram were continuously monitored in the conscious state. To this end, KATP channel knockout or 8- to 12-week old, age- and sex-matched C57BL/6 wild-type mice were implanted with telemetry devices (Data Sciences International) and leads tunneled subcutaneously under isoflurane anesthesia. Following a 2-week recovery from surgery, serial signals were acquired at 2 kHz before and during isoproterenol challenge.

[10] = test system: wild-type mice; assay: Telemetric rhythm monitoring under isoproterenol challenge, wild-type mice; type: in vivo; details: isoproterenol 10 mg/kg injection
Text: as §4

[11] = test system: Kir6.2-KO hearts; assay: Monophasic action potentials in Langendorff-perfused Kir6.2-KO hearts under isoproterenol; parameters: species or system mice
Text: Kir6.2-knockout mice. Mice deficient in KATP channels were generated by targeted disruption of the KCNJ11 gene, which encodes the pore-forming Kir6.2 subunit of the channel complex (Miki et al., 1998, supra). Kir6.2-knockout mice were backcrossed for five generations into a C57BL/6 background. This investigation was approved by the Mayo Clinic Institutional Animal Care and Use Committee.
(§5) In situ aortic cannulation and Langendorff perfusion. Mice were anesthetized with intraperitoneal injection of 2,2,2 tri-bromoethanol (0.375 mg/g body weight; Sigma), intubated, ventilated, and the aortic root cannulated in situ (Hodgson et al., 2003, supra). Perfusion was sustained ex vivo on a Langendorff system at 90 cm H2O, with 37° C.-prewarmed and 100% O2-bubbled Tyrode solution (in mM: NaCl 137, KCl 5.4, CaCl2 2, MgCl2 1, HEPES 10, glucose 10; pH 7.4 with NaOH). Following 10-min equilibration, KCl was reduced to 2.7 mM and MgCl2 to 0.35 mM, with the atrioventricular node cauterized to allow ventricular pacing. Coronary flow was monitored with a T106 blood flow meter (Transonic Systems).
(§6) Electrogram and monophasic action potential recordings. Orthogonal electrogram signals were simultaneously recorded using four silver-silver chloride electrodes surrounding the perfused heart in a simulated “Einthoven” configuration, and signals amplified by an electrocardiographic amplifier (Gould Electronics). A catheter (NuMed) was placed in the left ventricular endocardium to pace the heart at twice diastolic threshold intensity with 2 ms pulse width and 100 ms cycle length using a pulse generator (A310 Accupulser, World Precision Instruments). Monophasic action potentials were continuously recorded from the left ventricle by a probe (EP Technologies) positioned on the epicardial surface, and amplified signals (IsoDam, World Precision Instruments) acquired at 11.8 kHz and stored for off-line digital analysis.

[12] = test system: wild-type hearts; assay: Monophasic action potentials in Langendorff-perfused wild-type hearts under isoproterenol; parameters: species or system mice
Method: as §5, §6

[13] = test system: wild-type and mutated SUR2A NBD2; assay: TNP-ATP binding to purified NBD2 constructs (fluorescence, Scatchard); details: Scatchard analysis
Method: Enzymology and nucleotide binding. ATPase activity of purified NBD2 was measured in the presence of Mg^2+, as Pi generation detected spectrophotometrically at 360 nm with the EnzChek Phosphate Assay Kit or by monitoring conversion of [γ-^32P]ATP using thin layer chromatography and quantified it with Phosphorlmager and ImageQuant software (Molecular Dynamics) (Zingman et al., 2002, supra). The initial kinetics of ATP hydrolysis was captured by stopped-flow spectroscopy with instantaneous mixing of purified polypeptide and substrate on an SX. 18MV spectrometer (Applied Photophysics). Binding of fluorescent ATP analog TNP-ATP to purified NBD2 constructs was determined by fluorescence spectrophotometry (QuantaMaster, PTI) at excitation and emission wavelengths of 410 nm and 540 nm, respectively.

[14] = test system: wild-type hearts; assay: Coronary flow in isolated perfused wild-type hearts; parameters: species or system mice
[15] = test system: hypertensive wild-type mice; assay: Dobutamine challenge, left ventricular catheterization, hypertensive wild-type; type: in vivo; details: dobutamine 15 mg/kg i.p.
Method: Left Ventricular Catheterization. Invasive left ventricular pressure recordings were measured in vivo by a 1.4-Fr micropressure catheter (SPR-671, Millar Instruments) following carotid arterial cannulation and advancement across the aortic valve under 2,2,2 tri-bromoethanol ([…] i.p.; Sigma) anesthesia, before and after dobutamine (15 mg/kg i.p.) challenge. Left ventricular developed pressure was defined as the absolute difference between the maximum and minimum left ventricular pressure (mm Hg) and the relaxation time as the time from maximal rate of pressure decay to minimum left ventricular pressure (ms).

[16] = ADP-dependent inhibition at 2 mM ATP, read-out: ADP-dissociation constant (KADP)
[17] = 0 ADP, creatine kinase 0.01 U/ml, creatine phosphate 5 mM

Compound: COc1ccc(CCN(C)CCCC(C#N)(c2ccc(OC)c(OC)c2)C(C)C)cc1OC (stereo not drawn) [verapamil]
- left ventricular hypertrophy [1]: not affected
- median survival time [2]: 24 h
- mortality ([3]; hypertensive Kir6.2-KO): prevention of all mortality
- syndrome of heart failure including lung congestion ([3]; hypertensive Kir6.2-KO): averted
- degree of systemic hypertension [3]: did not affect
- coronary vasodilation in TNFα-challenged hearts ([4]; 1 μM verapamil after TNFα): reinstated coronary vasodilation

Compound: O=C(NCC1CCCCN1)c1cc(OCC(F)(F)F)ccc1OCC(F)(F)F (stereo not drawn) [flecainide]
- response of atrial fibrillation to antiarrhythmic medical therapy [5]: refractory and/or intolerant

Compound: Nc1ncnc2c1ncn2[C@@H]1O[C@H](COP(=O)(O)OP(=O)(O)O)[C@@H](O)[C@H]1O [ADP]
- Kd [6, 16]: 8.6 ± 0.3 µM
- Kd [7, 16]: 24.9 ± 5.6 µM
- Kd [8, 16]: 11 ± 1.5 µM

- complication of drug use ([5]; human, in vivo): symptomatic bradycardia
Compound: CC(C)NCC(O)c1ccc(NS(C)(=O)=O)cc1 (stereo not drawn) [sotalol]
- response of atrial fibrillation to antiarrhythmic medical therapy [5]: refractory and/or intolerant

Compound: CC(C)NCC(O)c1ccc(O)c(O)c1 (stereo not drawn) [isoproterenol]
- atrial fibrillation under isoproterenol infusion ([5]; patient with ABCC9 mutation, before ablation): provoked
- knockouts with atrial fibrillation [9]: 70%
- cardiac rhythm after isoproterenol [10]: maintained normal sinus rhythm
- hearts with isoproterenol-induced afterdepolarizations complicated by triggered activity ([11]; Kir6.2-KO hearts, 6 out of 8): 75%
- monophasic action potential duration at 90% repolarization (APD90) after isoproterenol ([11]; Kir6.2-KO hearts, 10-min perfusion, isoproterenol 1 mM, before 79±3): 80 ± 3 ms
- early afterdepolarizations, share of action potentials examined ([11]; Kir6.2-KO hearts, isoproterenol challenge): 97±2%
- fold higher risk of premature ventricular complexes, Kir6.2-KO versus wild-type ([11]; isoproterenol challenge): 16 fold
- hearts with isoproterenol-induced afterdepolarizations complicated by triggered activity ([12]; 1 out of 6): 16%
- monophasic action potential duration at 90% repolarization (APD90) after isoproterenol ([12]; 10-min perfusion, isoproterenol 1 mM, before 82±2): 74 ± 2 ms
- early afterdepolarizations, share of action potentials examined ([12]; isoproterenol challenge): 1±1%

Compound: TNP-ATP
- binding affinity of TNP-ATP, wild-type versus mutated NBD2 [13]: similar

Compound: Nc1ncnc2c1ncn2[C@@H]1O[C@H](COP(=O)(O)OP(=O)(O)OP(=O)(O)O)[C@@H](O)[C@H]1O [ATP]
- Michaelis-Menten constant of NBD2 ATPase (ATP dependence) [6, 17]: 0.11 ± 0.02 mM
- Michaelis-Menten constant of NBD2 ATPase (ATP dependence) [7, 17]: 0.094 ± 0.013 mM
- Michaelis-Menten constant of NBD2 ATPase (ATP dependence) [8, 17]: 0.084 ± 0.010 mM

Compound: COc1ccc(Cl)cc1C(=O)NCCc1ccc(S(=O)(=O)NC(=O)NC2CCCCC2)cc1 [glyburide]
- TNFα-induced increase in coronary flow after glyburide pre-treatment ([14]; 10 min perfusion of 10 μM glyburide before TNFα): not observed

Compound: TNFα
- coronary vasodilation (coronary flow) under TNFα ([14]; recombinant TNFα 4 μg/l): induced maximal coronary vasodilation
- TNFα-induced increase in coronary flow ([4]; 4, 8 or 20 μg/l TNFα): not observed

Compound: CC(CCc1ccc(O)cc1)NCCc1ccc(O)c(O)c1 (stereo not drawn) [dobutamine]
- response to inotropic challenge [15]: normal contractile response to the same stress challenge with no death
